Marks after values point to notes of the source that are not given here.
How the values were obtained:
[1] = tested on: AZT-sensitive strain HIV-1 018a; assay: HIV-1 P24 antigen inhibition in PBMC, AZT-sensitive strain; conditions: PBMC, AZT-sensitive HIV-1 018a
[2] = tested on: HIV-1 IIIB; assay: HIV-1 P24 antigen inhibition in chronically infected H9 cells
Experimental: HIV-1 P24 antigen titer was measured according to the operation procedures stated in HIV-1 P24 antigen kit.
100 μl (2×10^5 cells/ml) of H9 cells suspension was seeded into 96-well cell culture plate. Then, 100 μl liquor of 2× diluted medicament or 4-5× diluted positive AZT (8 concentrations) was added. Each dilution was repeated in three wells. The cell control group was established. The cells were incubated in the incubator (37° C., 5% CO2, saturated humidity) and the cytopathy was observed everyday. Four days (96 hours) after administration, the supernatants were sucked out and stored at −20° C. to measure HIV-1-P24 antigen titer. The inhibition effect of the medicament was determined. The cells were dyed with MTT to measure the cytotoxicity.
2.2.2 Reed & Muench Method for Calculating CC50 and EC50 of Medicament in Cell Culture
Calculation Method of Selection Index (SI) of HIV-1 P24 Antigen in Cell Culture SI=CC50/EC50 3.

[3] = tested on: HIV-1 IIIB; assay: HIV-1 P24 antigen inhibition in MT-4 culture; conditions: MT-4, HIV-1 IIIB
Experimental: MT-4 cell suspension was counted, then 100 μl of suspension (2×10^5 cells/ml) was seeded into 96-well cell culture plate, 50 μl liquor of 2× diluted medicament or 4-5× diluted positive medicament AZT (8 concentrations) was added, respectively, and 50 μl virus suspension with proper titer was add concurrently. Each dilution was repeated in 3 wells and cell control group and virus control group were established. They were incubated at 37° C., 5% CO2 saturated humidity incubator and the cytopathy was observed everyday. On the fourth day after administration (96 hours), the supernatants were sucked out and stored at −20° C. for measuring HIV-1-P24 antigen titer. Accordingly, the inhibition effect of medicament could be calculated, and the cells were dyed with MTT to measure the cytotoxicity.
The medicated cell supernatants infected with MT-4 were diluted after being thawed. HIV-1 P24 titer was measured according to the operation procedure described in HIV-1 P24 antigen kit.
[formula] 2.2.2 Reed & Muench Method for Calculating CC50 and EC50 of Medicament in Cell Culture
[formula] 2.2.3. Calculation Method of Selection Index (SI) of HIV-1 P24 Antigen in Cell Culture SI=CC50/EC50 3.

[4] = tested on: human peripheral blood mononuclear cell (PBMC); assay: cytotoxicity by MTT in HIV-infected PBMC culture; conditions: 96 hours
Experimental: 10 μl MTT dye (5 mg/ml) was added to each well, and then incubated at 37° C., 5% CO2 saturated humidity incubator for 4 hours. 100 μl 50% DMF-17% Triton X-100 destainer was added to each well and the mixtures were kept at 37° C. overnight. Then OD570nm values were measured at 570 nm with a luminometer to calculate the median cytotoxicity concentration of medicament (CC50).
The fresh normal human venous blood was taken and PBMC was separated using FiColl separation solution. The 1.5×10^5 cells/ml suspension prepared with the culture fluid containing PHA was seeded into the culture bottle and incubated in the incubator (37° C., 5% CO2) for 72 hours. The cells were collected with cell scrapers then were infected with the 10^−2 viral liquid of AZT-sensitive (018a) or AZT-resistant (018c) viral strain. After absorption for 2 hours, the non-absorbed viruses were washed with serum-free 1640 culture medium. The infected cells were prepared into 1×10^6 cells/ml with the culture fluid, and then were seeded into the 96-well culture board in 100 μl/well. At the same time, 100 μl liquor of 2× diluted AKJ-2 or 5× diluted positive control medicament AZT with different concentrations was added. The cell control group and virus control group were established. Four days (96 hours) after incubating under 37° C., 5% CO2, the supernatants were sucked out and stored at −20° C. to measure HIV-1-P24 antigen titer and calculate the inhibition effect of the medicament. The cells were dyed with MTT to measure the cytotoxicity.

[5] = tested on: human T lymphocytes MT-4; assay: cytotoxicity by MTT in MT-4 culture; conditions: MT-4 culture with HIV-1 IIIB, 96 hours
[6] = tested on: AZT-resistant strain HIV-1 018c; conditions: PBMC, AZT-resistant HIV-1 018c
[7] = tested on: duck hepatitis B virus (DHBV); assay: pharmacotherapy test in DHBV infected ducklings, serum DHBV-DNA dot-blot; assay type: in vivo, Beijing ducklings
[8] = solubility; assay type: physicochemical
[9] = tested on: human T lymphocytes H9 chronically infected with HIV-1 IIIB; assay: cytotoxicity by MTT in H9 cells chronically infected with HIV-1 IIIB; conditions: H9 cell chronically infected with HIV-1 IIIB, 96 hours

CC(C)=CC[C@H](OC(=O)C=C(C)C)C1=CC(=O)c2c(O)ccc(O)c2C1=O [AKJ, β,β-dimethyl-acryl-alkannin]
Selection index (CC50/EC50) [1]: 5.12 ± 0.33 | Median effective concentration (EC50), HIV-1 P24 antigen ([1]; 96 hours): 1.11 ± 0.11 mg/L | Median effective concentration (EC50), HIV-1 P24 antigen ([2]; H9 cell chronically infected with HIV-1 IIIB, 96 hours): >0.25 ± 0 mg/L | inhibition effect on HIV-1 IIIB chronically-infected H9 cells ([2]; two lots of tests): no inhibition effect | Selection index (CC50/EC50) [3]: 4.49 ± 0.94 | Median effective concentration (EC50), HIV-1 P24 antigen ([3]; 96 hours): 0.07 ± 0.01 mg/L | Median cytotoxicity concentration (CC50) ([4]; PBMC infected with AZT-resistant HIV-1 018c): 5.55 ± 0.136 mg/L | Median cytotoxicity concentration (CC50) ([4]; PBMC infected with AZT-sensitive HIV-1 018a): 5.66 ± 0.28 mg/L | Median cytotoxicity concentration (CC50) [5]: 0.31 ± 0.04 mg/L | Selection index (CC50/EC50) [6]: 5.75 ± 0.67 | Median effective concentration (EC50), HIV-1 P24 antigen ([6]; 96 hours): 0.97 ± 0.13 mg/L | Serum DHBV-DNA OD490 value (X ± SD) ([7]; Lot I, 25 mg/kg oral bid x 10 days, P3 (third day after cessation)): 0.792 ± 0.13 | Serum DHBV-DNA level Inhibitory Rate (%) ([7]; Lot I, 25 mg/kg oral bid x 10 days, P3 vs T0): 5.43% | Serum DHBV-DNA OD490 value (X ± SD) ([7]; Lot I, 25 mg/kg oral bid x 10 days, T0 (day before administration)): 0.851 ± 0.15 | Serum DHBV-DNA OD490 value (X ± SD) ([7]; Lot I, 25 mg/kg oral bid x 10 days, T5): 0.767 ± 0.18 | Serum DHBV-DNA level Inhibitory Rate (%) ([7]; Lot I, 25 mg/kg oral bid x 10 days, T5 vs T0): 8.81% | Serum DHBV-DNA OD490 value (X ± SD) ([7]; Lot I, 25 mg/kg oral bid x 10 days, T10): 0.762 ± 0.15 | Serum DHBV-DNA level Inhibitory Rate (%) ([7]; Lot I, 25 mg/kg oral bid x 10 days, T10 vs T0): 8.73% | Serum DHBV-DNA OD490 value (X ± SD) ([7]; Lot I, 50 mg/kg oral bid x 10 days, P3 (third day after cessation)): 0.696 ± 0.05 | Serum DHBV-DNA level Inhibitory Rate (%) ([7]; Lot I, 50 mg/kg oral bid x 10 days, P3 vs T0): 32.39** % | Serum DHBV-DNA OD490 value (X ± SD) ([7]; Lot I, 50 mg/kg oral bid x 10 days, T0 (day before administration)): 1.082 ± 0.23 | Serum DHBV-DNA OD490 value (X ± SD) ([7]; Lot I, 50 mg/kg oral bid x 10 days, T5): 0.961 ± 0.23 | Serum DHBV-DNA level Inhibitory Rate (%) ([7]; Lot I, 50 mg/kg oral bid x 10 days, T5 vs T0): 9.16% | Serum DHBV-DNA OD490 value (X ± SD) ([7]; Lot I, 50 mg/kg oral bid x 10 days, T10): 0.680 ± 0.09 | Serum DHBV-DNA level Inhibitory Rate (%) ([7]; Lot I, 50 mg/kg oral bid x 10 days, T10 vs T0): 33.56** % | Serum DHBV-DNA OD490 value (X ± SD) ([7]; Lot I, 100 mg/kg oral bid x 10 days, P3 (third day after cessation)): 0.667 ± 0.22 | Serum DHBV-DNA level Inhibitory Rate (%) ([7]; Lot I, 100 mg/kg oral bid x 10 days, P3 vs T0): 44.91** % | Serum DHBV-DNA OD490 value (X ± SD) ([7]; Lot I, 100 mg/kg oral bid x 10 days, T0 (day before administration)): 1.207 ± 0.23 | Serum DHBV-DNA OD490 value (X ± SD) ([7]; Lot I, 100 mg/kg oral bid x 10 days, T5): 0.987 ± 0.26 | Serum DHBV-DNA level Inhibitory Rate (%) ([7]; Lot I, 100 mg/kg oral bid x 10 days, T5 vs T0): 17.86* % | Serum DHBV-DNA OD490 value (X ± SD) ([7]; Lot I, 100 mg/kg oral bid x 10 days, T10): 0.757 ± 0.19 | Serum DHBV-DNA level Inhibitory Rate (%) ([7]; Lot I, 100 mg/kg oral bid x 10 days, T10 vs T0): 37.09** % | Serum DHBV-DNA OD490 value (X ± SD) ([7]; Lot II, 25 mg/kg oral bid x 10 days, P3 (third day after cessation)): 1.092 ± 0.13 | Serum DHBV-DNA level Inhibitory Rate (%) ([7]; Lot II, 25 mg/kg oral bid x 10 days, P3 vs T0): −12.91% | Serum DHBV-DNA OD490 value (X ± SD) ([7]; Lot II, 25 mg/kg oral bid x 10 days, T0 (day before administration)): 1.005 ± 0.22 | Serum DHBV-DNA OD490 value (X ± SD) ([7]; Lot II, 25 mg/kg oral bid x 10 days, T5): 1.061 ± 0.08 | Serum DHBV-DNA level Inhibitory Rate (%) ([7]; Lot II, 25 mg/kg oral bid x 10 days, T5 vs T0): −8.66% | Serum DHBV-DNA OD490 value (X ± SD) ([7]; Lot II, 25 mg/kg oral bid x 10 days, T10): 0.928 ± 0.09 | Serum DHBV-DNA level Inhibitory Rate (%) ([7]; Lot II, 25 mg/kg oral bid x 10 days, T10 vs T0): 5.67% | Serum DHBV-DNA OD490 value (X ± SD) ([7]; Lot II, 50 mg/kg oral bid x 10 days, P3 (third day after cessation)): 1.140 ± 0.25 | Serum DHBV-DNA level Inhibitory Rate (%) ([7]; Lot II, 50 mg/kg oral bid x 10 days, P3 vs T0): 14.99% | Serum DHBV-DNA OD490 value (X ± SD) ([7]; Lot II, 50 mg/kg oral bid x 10 days, T0 (day before administration)): 1.375 ± 0.28 | Serum DHBV-DNA OD490 value (X ± SD) ([7]; Lot II, 50 mg/kg oral bid x 10 days, T5): 1.075 ± 0.14 | Serum DHBV-DNA level Inhibitory Rate (%) ([7]; Lot II, 50 mg/kg oral bid x 10 days, T5 vs T0): 20.22** % | Serum DHBV-DNA OD490 value (X ± SD) ([7]; Lot II, 50 mg/kg oral bid x 10 days, T10): 0.947 ± 0.13 | Serum DHBV-DNA level Inhibitory Rate (%) ([7]; Lot II, 50 mg/kg oral bid x 10 days, T10 vs T0): 27.55* % | Serum DHBV-DNA OD490 value (X ± SD) ([7]; Lot II, 100 mg/kg oral bid x 10 days, P3 (third day after cessation)): 0.875 ± 0.17 | Serum DHBV-DNA level Inhibitory Rate (%) ([7]; Lot II, 100 mg/kg oral bid x 10 days, P3 vs T0): 18.04* % | Serum DHBV-DNA OD490 value (X ± SD) ([7]; Lot II, 100 mg/kg oral bid x 10 days, T0 (day before administration)): 1.080 ± 0.21 | Serum DHBV-DNA OD490 value (X ± SD) ([7]; Lot II, 100 mg/kg oral bid x 10 days, T5): 0.872 ± 0.13 | Serum DHBV-DNA level Inhibitory Rate (%) ([7]; Lot II, 100 mg/kg oral bid x 10 days, T5 vs T0): 18.14** % | Serum DHBV-DNA OD490 value (X ± SD) ([7]; Lot II, 100 mg/kg oral bid x 10 days, T10): 0.670 ± 0.14 | Serum DHBV-DNA level Inhibitory Rate (%) ([7]; Lot II, 100 mg/kg oral bid x 10 days, T10 vs T0): 36.65** % | Serum DHBV-DNA OD490 value (X ± SD) ([7]; Lot III, 25 mg/kg oral bid x 10 days, P3 (third day after cessation)): 1.035 ± 0.21 | Serum DHBV-DNA level Inhibitory Rate (%) ([7]; Lot III, 25 mg/kg oral bid x 10 days, P3 vs T0): 16.14* % | Serum DHBV-DNA OD490 value (X ± SD) ([7]; Lot III, 25 mg/kg oral bid x 10 days, T0 (day before administration)): 1.263 ± 0.35 | Serum DHBV-DNA OD490 value (X ± SD) ([7]; Lot III, 25 mg/kg oral bid x 10 days, T5): 1.079 ± 0.23 | Serum DHBV-DNA level Inhibitory Rate (%) ([7]; Lot III, 25 mg/kg oral bid x 10 days, T5 vs T0): 11.66* % | Serum DHBV-DNA OD490 value (X ± SD) ([7]; Lot III, 25 mg/kg oral bid x 10 days, T10): 1.076 ± 0.16 | Serum DHBV-DNA level Inhibitory Rate (%) ([7]; Lot III, 25 mg/kg oral bid x 10 days, T10 vs T0): 11.96* % | Serum DHBV-DNA OD490 value (X ± SD) ([7]; Lot III, 50 mg/kg oral bid x 10 days, P3 (third day after cessation)): 1.368 ± 0.11 | Serum DHBV-DNA level Inhibitory Rate (%) ([7]; Lot III, 50 mg/kg oral bid x 10 days, P3 vs T0): 16.59** % | Serum DHBV-DNA OD490 value (X ± SD) ([7]; Lot III, 50 mg/kg oral bid x 10 days, T0 (day before administration)): 1.649 ± 0.13 | Serum DHBV-DNA OD490 value (X ± SD) ([7]; Lot III, 50 mg/kg oral bid x 10 days, T5): 1.459 ± 0.28 | Serum DHBV-DNA level Inhibitory Rate (%) ([7]; Lot III, 50 mg/kg oral bid x 10 days, T5 vs T0): 11.03* % | Serum DHBV-DNA OD490 value (X ± SD) ([7]; Lot III, 50 mg/kg oral bid x 10 days, T10): 1.411 ± 0.31 | Serum DHBV-DNA level Inhibitory Rate (%) ([7]; Lot III, 50 mg/kg oral bid x 10 days, T10 vs T0): 13.00% | Serum DHBV-DNA OD490 value (X ± SD) ([7]; Lot III, 100 mg/kg oral bid x 10 days, P3 (third day after cessation)): 1.146 ± 0.56 | Serum DHBV-DNA level Inhibitory Rate (%) ([7]; Lot III, 100 mg/kg oral bid x 10 days, P3 vs T0): 18.34% | Serum DHBV-DNA OD490 value (X ± SD) ([7]; Lot III, 100 mg/kg oral bid x 10 days, T0 (day before administration)): 1.474 ± 0.38 | Serum DHBV-DNA OD490 value (X ± SD) ([7]; Lot III, 100 mg/kg oral bid x 10 days, T5): 1.351 ± 0.30 | Serum DHBV-DNA level Inhibitory Rate (%) ([7]; Lot III, 100 mg/kg oral bid x 10 days, T5 vs T0): 2.76% | Serum DHBV-DNA OD490 value (X ± SD) ([7]; Lot III, 100 mg/kg oral bid x 10 days, T10): 1.046 ± 0.42 | Serum DHBV-DNA level Inhibitory Rate (%) ([7]; Lot III, 100 mg/kg oral bid x 10 days, T10 vs T0): 28.41** % | solubility in DMSO ([8]; DMSO): soluble | solubility in water ([8]; water): insoluble | Median cytotoxicity concentration (CC50) [9]: 1.915 ± 0.09 mg/L

From patent US7897640B2 (priority 2003, dated 2011)
